Read-outs that look alike come from different tables or passages of the source. *1 amine or outer side, *2 acyl side, *3 side chain or, on linkers, in order; H or OH if unused. Where a SMILES comes first, the peptide text is derived from it. Side-chain parts run from the residue outwards. [ ]: non-standard residue; d: D form. The star is where a group is joined. Decanoyl(10-(4-HOOC-PhO)) = O=C(O)c1ccc(OCCCCCCCCCC(=O)*)cc1; αMePhe(2-F) = C[C@](N)(Cc1ccccc1F)C(=O)O; γGlu = O=C(O)[C@H](CCC(=O)[*:2])N[*:1]; αMeY = C[C@](N)(Cc1ccc(O)cc1)C(=O)O; αMeL = CC(C)C[C@](C)(N)C(=O)O; Orn = NCCC[C@H](N)C(=O)O; AEEA = NCCOCCOCC(=O)O; Aib = CC(C)(N)C(=O)O
How the values were obtained:
Type in all cases: cell-based
hGLP-1R = hGLP-1R (Homo sapiens, UniProt P43220); assay: Functional cAMP formation (HTRF) in HEK-293 clonal cells expressing hGLP-1R, 0.1% bovine casein, without or with 1.0% human serum albumin; design: expressed in transfected cells; settings: for EC50: cAMP
hGLP-1R, sequence (P43220 24-463): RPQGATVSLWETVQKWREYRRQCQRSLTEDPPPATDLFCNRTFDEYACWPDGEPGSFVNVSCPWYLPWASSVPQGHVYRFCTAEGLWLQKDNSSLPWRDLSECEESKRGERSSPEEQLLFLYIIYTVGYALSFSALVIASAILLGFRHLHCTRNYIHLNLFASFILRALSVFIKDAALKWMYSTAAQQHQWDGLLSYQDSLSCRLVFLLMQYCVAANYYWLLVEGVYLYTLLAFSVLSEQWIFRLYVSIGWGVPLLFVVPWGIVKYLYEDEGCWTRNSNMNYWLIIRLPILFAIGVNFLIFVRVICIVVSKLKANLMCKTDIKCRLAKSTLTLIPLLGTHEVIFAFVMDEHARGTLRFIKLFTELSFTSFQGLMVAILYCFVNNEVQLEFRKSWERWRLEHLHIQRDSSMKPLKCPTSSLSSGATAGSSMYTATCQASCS
How it was run: (§1)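 Cells were stimulated with peptide for 30 min at 37° C, then lysed in buffer carrying cAMP-d2 and anti-cAMP Eu3+-cryptate for a competitive HTRF read after at least 60 min at room temperature. The 665/620 nm ratio was converted to nM cAMP against a standard curve.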

hGCGR = target: T1, hGCGR (Homo sapiens, UniProt P47871); assay: Functional cAMP formation (HTRF) in HEK-293 clonal cells expressing hGCGR, 0.1% bovine casein, without or with 1.0% human serum albumin
T1 construct: expressed in transfected cells
T1 sequence (P47871 26-477): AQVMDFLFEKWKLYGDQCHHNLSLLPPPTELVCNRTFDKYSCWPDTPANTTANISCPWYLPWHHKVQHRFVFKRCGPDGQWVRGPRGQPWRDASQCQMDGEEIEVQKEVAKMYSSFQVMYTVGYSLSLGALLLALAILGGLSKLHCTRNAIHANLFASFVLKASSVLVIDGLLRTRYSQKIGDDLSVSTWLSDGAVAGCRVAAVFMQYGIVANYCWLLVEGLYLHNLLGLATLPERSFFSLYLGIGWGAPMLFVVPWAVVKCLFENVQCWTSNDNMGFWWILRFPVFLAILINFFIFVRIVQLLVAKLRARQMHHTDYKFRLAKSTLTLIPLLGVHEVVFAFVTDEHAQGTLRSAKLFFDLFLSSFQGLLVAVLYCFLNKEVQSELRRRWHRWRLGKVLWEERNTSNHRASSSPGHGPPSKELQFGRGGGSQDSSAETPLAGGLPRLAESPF
How it was run: as §1

hGIPR = target: T2, hGIPR (Homo sapiens, UniProt P48546); assay: Functional cAMP formation (HTRF) in HEK-293 clonal cells expressing hGIPR, 0.1% bovine casein, without or with 1.0% human serum albumin; settings: for EC50: geometric mean
T2 construct: expressed in transfected cells
T2 sequence (P48546 22-466): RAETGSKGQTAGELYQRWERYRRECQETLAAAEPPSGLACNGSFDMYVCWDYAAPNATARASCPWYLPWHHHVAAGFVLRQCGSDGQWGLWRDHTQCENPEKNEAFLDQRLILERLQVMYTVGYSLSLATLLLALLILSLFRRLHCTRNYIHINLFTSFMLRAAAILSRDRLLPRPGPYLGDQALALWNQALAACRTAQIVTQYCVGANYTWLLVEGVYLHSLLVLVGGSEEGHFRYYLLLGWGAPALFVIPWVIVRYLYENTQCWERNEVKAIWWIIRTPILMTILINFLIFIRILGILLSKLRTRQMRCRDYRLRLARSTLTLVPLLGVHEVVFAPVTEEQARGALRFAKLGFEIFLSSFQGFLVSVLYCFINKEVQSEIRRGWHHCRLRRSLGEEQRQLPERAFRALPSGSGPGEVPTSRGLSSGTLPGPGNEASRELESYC
How it was run: as §1

[1] = hGLP-1R EC50, nM (SEM, n), 37° C., 0.1% bovine casein (no human serum albumin), geometric mean
[2] = hGCGR EC50, nM (SEM, n), 0.1% bovine casein and 1.0% human serum albumin, 37° C., geometric mean
[3] = hGCGR EC50, nM (SEM, n), cAMP, 37° C., 0.1% bovine casein (no human serum albumin), geometric mean
[4] = hGIPR EC50, nM (SEM, n), cAMP, 37° C., 0.1% bovine casein (no human serum albumin)

Compound CC[C@H](C)[C@H](NC(=O)[C@H](CC(C)C)NC(=O)[C@](C)(Cc1ccc(O)cc1)NC(=O)[C@@H](CCC(=O)O)NC(=O)[C@@H](NC(=O)[C@H](Cc1ccccc1)NC(=O)[C@H](CCCCNC(=O)COCCOCCNC(=O)COCCOCCNC(=O)CC[C@H](NC(=O)CCCCCCCCCOc1ccc(C(=O)O)cc1)C(=O)O)NC(=O)C(C)(C)NC(=O)[C@H](CCC(N)=O)NC(=O)[C@H](C)NC(=O)[C@H](CCCCNC(=O)COCCOCCNC(=O)COCCOCCNC(=O)CC[C@H](NC(=O)CCCCCCCCCOc1ccc(C(=O)O)cc1)C(=O)O)NC(=O)[C@H](CCCN)NC(=O)[C@H](CC(=O)O)NC(=O)[C@H](CC(C)C)NC(=O)[C@](C)(CC(C)C)NC(=O)[C@@H](NC(=O)[C@H](CO)NC(=O)[C@H](Cc1ccc(OC)cc1)NC(=O)[C@H](CC(=O)O)NC(=O)[C@H](CO)NC(=O)[C@@H](NC(=O)[C@](C)(Cc1ccccc1F)NC(=O)[C@@H](NC(=O)CNC(=O)[C@H](CCC(=O)O)NC(=O)C(C)(C)NC(=O)[C@@H](N)Cc1ccc(O)cc1)[C@@H](C)O)[C@@H](C)O)[C@@H](C)CC)[C@@H](C)CC)C(=O)N[C@@H](CCC(=O)O)C(=O)NCC(=O)NCC(=O)N1CCC[C@H]1C(=O)N[C@@H](CO)C(=O)N[C@@H](CO)C(=O)NCC(=O)N[C@@H](C)C(=O)N1CCC[C@H]1C(=O)N1CCC[C@H]1C(=O)N1CCC[C@H]1C(=O)N[C@@H](CO)C(N)=O [Example 277] (H-Y[Aib]EGT[αMePhe(2-F)]TSDY(Me)SI[αMeL]LD[Orn]K([AEEA-AEEA-γGlu-Decanoyl(10-(4-HOOC-PhO))])AQ[Aib]K([AEEA-AEEA-γGlu-Decanoyl(10-(4-HOOC-PhO))])FI[dE][αMeY]LIEGGPSSGAPPPS-NH2) has an Emax (hGLP-1R; HEK293, read-out: hGLP-1R Emax, % ± SEM, 0.1% bovine casein and 1.0% human serum albumin, 37° C., percent of maximal response to GLP-1(7-36)NH2) of 93.1%, an Emax (hGLP-1R; HEK293, read-out: hGLP-1R Emax, % ± SEM, cAMP, 37° C., 0.1% bovine casein, percent of maximal response to GLP-1(7-36)NH2, arithmetic mean) of 97.1% and an EC50 (hGLP-1R; [1]) of 0.225 nM. The EC50 (hGCGR; [2]) was greater than 9950 nM, the EC50 (hGCGR; [3]) was greater than 9950 nM and the EC50 (hGIPR; [4]) was 0.0176 nM.

Work on CC[C@H](C)[C@H](NC(=O)[C@H](CC(C)C)NC(=O)[C@](C)(Cc1ccc(O)cc1)NC(=O)[C@@H](CCC(=O)O)NC(=O)[C@@H](NC(=O)[C@H](Cc1ccccc1)NC(=O)[C@H](CCC(=O)O)NC(=O)C(C)(C)NC(=O)[C@H](CCC(N)=O)NC(=O)[C@H](C)NC(=O)[C@H](CCCCNC(=O)COCCOCCNC(=O)COCCOCCNC(=O)CC[C@H](NC(=O)CCCc1ccc(C(C)(C)C)cc1)C(=O)O)NC(=O)[C@H](CCCN)NC(=O)[C@H](CC(=O)O)NC(=O)[C@H](CC(C)C)NC(=O)[C@](C)(CC(C)C)NC(=O)[C@@H](NC(=O)[C@H](CO)NC(=O)[C@H](CCCCNC(=O)COCCOCCNC(=O)COCCOCCNC(=O)CC[C@H](NC(=O)CCCc1ccc(C(C)(C)C)cc1)C(=O)O)NC(=O)[C@H](CC(=O)O)NC(=O)[C@H](CO)NC(=O)[C@@H](NC(=O)[C@](C)(Cc1ccccc1F)NC(=O)[C@@H](NC(=O)CNC(=O)[C@H](CCC(=O)O)NC(=O)C(C)(C)NC(=O)[C@@H](N)Cc1ccc(O)cc1)[C@@H](C)O)[C@@H](C)O)[C@@H](C)CC)[C@@H](C)CC)C(=O)N[C@@H](CCC(=O)O)C(=O)NCC(=O)NCC(=O)N1CCC[C@H]1C(=O)N[C@@H](CO)C(=O)N[C@@H](CO)C(=O)NCC(=O)N[C@@H](C)C(=O)N1CCC[C@H]1C(=O)N1CCC[C@H]1C(=O)N1CCC[C@H]1C(=O)N[C@@H](CO)C(N)=O [Example 130] yielded an Emax (hGLP-1R; HEK293, percent of maximal response to GLP-1(7-36)NH2, 37° C., 0.1% bovine casein, arithmetic mean, read-out: hGLP-1R Emax, % ± SEM) of 100 ± 1.69%, an EC50 (hGCGR; cAMP, incubated at 37° C., 0.1% bovine casein (no human serum albumin), geometric mean, read-out: hGCGR EC50, nM (SEM, n)) greater than 9950 nM and an Emax (hGIPR; HEK293, percent of maximal response to GIP(1-42)NH2, 37° C., 0.1% bovine casein, arithmetic mean, read-out: hGIPR Emax, % ± SEM) of 94.7 ± 4.51%. The EC50 (hGIPR; cAMP, incubated at 37° C., 0.1% bovine casein (no human serum albumin), read-out: hGIPR EC50, nM (SEM, n)) was 0.0266 nM.

Work on CCCCCCCCCCCC(=O)N[C@@H](CCC(=O)NCCOCCOCC(=O)NCCCC[C@H](NC(=O)[C@H](CCCN)NC(=O)[C@H](CC(=O)O)NC(=O)[C@H](CC(C)C)NC(=O)[C@](C)(CC(C)C)NC(=O)[C@@H](NC(=O)C(C)(C)NC(=O)[C@H](Cc1ccncc1)NC(=O)[C@H](CC(=O)O)NC(=O)[C@H](CO)NC(=O)[C@@H](NC(=O)[C@](C)(Cc1ccccc1F)NC(=O)[C@@H](NC(=O)CNC(=O)[C@H](CCC(=O)O)NC(=O)C(C)(C)NC(=O)[C@@H](N)Cc1ccc(O)cc1)[C@@H](C)O)[C@@H](C)O)[C@@H](C)CC)C(=O)N[C@@H](C)C(=O)N[C@@H](CCC(N)=O)C(=O)NC(C)(C)C(=O)N[C@@H](CCCCNC(=O)COCCOCCNC(=O)CC[C@H](NC(=O)CCCCCCCCCCC)C(=O)O)C(=O)N[C@@H](Cc1ccccc1)C(=O)N[C@H](C(=O)N[C@H](CCC(=O)O)C(=O)N[C@@](C)(Cc1ccc(O)cc1)C(=O)N[C@@H](CC(C)C)C(=O)N[C@H](C(=O)N[C@@H](CCC(=O)O)C(=O)NCC(=O)NCC(=O)N1CCC[C@H]1C(=O)N[C@@H](CO)C(=O)N[C@@H](CO)C(=O)NCC(=O)N[C@@H](C)C(=O)N1CCC[C@H]1C(=O)N1CCC[C@H]1C(=O)N1CCC[C@H]1C(=O)N[C@@H](CO)C(N)=O)[C@@H](C)CC)[C@@H](C)CC)C(=O)O [Example 426] yielded an Emax (hGLP-1R; HEK293, cAMP, 37° C., 0.1% bovine casein, percent of maximal response to GLP-1(7-36)NH2, arithmetic mean, read-out: hGLP-1R Emax, % ± SEM) of 97.2%, an EC50 (hGLP-1R; 37° C., 0.1% bovine casein (no human serum albumin), geometric mean, read-out: hGLP-1R EC50, nM (SEM, n)) of 0.206 nM and an EC50 (hGLP-1R; 37° C., 0.1% bovine casein and 1.0% human serum albumin, geometric mean (SEM, n), read-out: hGLP-1R EC50, nM (SEM, n)) of 29.7 nM. For the same compound, the EC50 (hGCGR; cAMP, 37° C., 0.1% bovine casein (no human serum albumin), geometric mean, read-out: hGCGR EC50, nM (SEM, n)) was greater than 9950 nM, the EC50 (hGCGR; cAMP, 37° C., 0.1% bovine casein and 1.0% human serum albumin, geometric mean (SEM, n), read-out: hGCGR EC50, nM (SEM, n)) was greater than 9950 nM and the Emax (hGIPR; HEK293, cAMP, 37° C., 0.1% bovine casein and 1.0% human serum albumin, percent of maximal response to GIP(1-42)NH2, read-out: hGIPR Emax, % ± SEM) was 91.2%. The Emax (hGIPR; HEK293, cAMP, 37° C., 0.1% bovine casein, percent of maximal response to GIP(1-42)NH2, arithmetic mean, read-out: hGIPR Emax, % ± SEM) was 93.3% and the EC50 (hGIPR; cAMP, 37° C., 0.1% bovine casein (no human serum albumin), read-out: hGIPR EC50, nM (SEM, n)) was 0.0191 nM.

Compound CC[C@H](C)[C@H](NC(=O)[C@H](CCCN)NC(=O)[C@H](CC(=O)O)NC(=O)[C@H](CC(C)C)NC(=O)[C@](C)(CC(C)C)NC(=O)[C@@H](NC(=O)[C@](C)(CO)NC(=O)[C@@H](NC(=O)[C@H](CC(=O)O)NC(=O)[C@H](CO)NC(=O)[C@@H](NC(=O)[C@](C)(Cc1ccccc1F)NC(=O)[C@@H](NC(=O)CNC(=O)[C@H](CCC(=O)O)NC(=O)C(C)(C)NC(=O)[C@@H](N)Cc1ccc(O)cc1)[C@@H](C)O)[C@@H](C)O)C(C)C)[C@@H](C)CC)C(=O)N[C@@H](C)C(=O)N[C@@H](CCC(N)=O)C(=O)NC(C)(C)C(=O)N[C@@H](CCC(=O)O)C(=O)N[C@@H](Cc1ccccc1)C(=O)N[C@H](C(=O)N[C@@H](CCCCNC(=O)COCCOCCNC(=O)COCCOCCNC(=O)CC[C@H](NC(=O)CCCCCCCCCOc1ccc(C(=O)O)cc1)C(=O)O)C(=O)N[C@@](C)(Cc1ccc(O)cc1)C(=O)N[C@@H](CC(C)C)C(=O)N[C@H](C(=O)N[C@@H](CCCCNC(=O)COCCOCCNC(=O)COCCOCCNC(=O)CC[C@H](NC(=O)CCCCCCCCCOc1ccc(C(=O)O)cc1)C(=O)O)C(=O)NCC(=O)NCC(=O)N1CCC[C@H]1C(=O)N[C@@H](CO)C(=O)N[C@@H](CO)C(=O)NCC(=O)N[C@@H](C)C(=O)N1CCC[C@H]1C(=O)N1CCC[C@H]1C(=O)N1CCC[C@H]1C(=O)N[C@@H](CO)C(N)=O)[C@@H](C)CC)[C@@H](C)CC [Example 309] has an EC50 (hGLP-1R; [1]) of 0.527 nM, an EC50 (hGCGR; [2]) greater than 9950 nM and an EC50 (hGCGR; [3]) greater than 9950 nM. The Emax (hGIPR; HEK293, read-out: hGIPR Emax, % ± SEM, 0.1% bovine casein and 1.0% human serum albumin, 37° C., percent of maximal response to GIP(1-42)NH2) was 95.3%, the EC50 (hGIPR; hGIPR EC50, nM (SEM, n), 0.1% bovine casein and 1.0% human serum albumin, 37° C.) was 6.08 nM and the EC50 (hGIPR; [4]) was 0.0212 nM.

Reference: US20230265151A1, “GIP/GLP1 CO-AGONIST COMPOUNDS” (priority 2020, published 2023)
